Here are results for two compounds from patent US6645918B1, “N-([1,2,4]triazoloazinyl)thiophenesulfonamide compounds and their use as herbicides” (Dow AgroSciences LLC, priority 2000, dated 2003).

Holding throughout (format): in vivo
Assay [1] deals with chickweed (Stellaria media). The experiment in a line: Postemergence herbicidal activity, chickweed. As to conditions: foliar spray, visual after 2 weeks, 0 no injury, 100 complete kill. As to the method: (§1) Seeds of the desired test plant species were planted in Grace-Sierra MetroMix® 306 planting mixture, which typically has a pH of 6.0 to 6.8 and an organic matter content of about 30 percent, in plastic pots with a surface area of 64 square centimeters. When required to ensure good germination and healthy plants, a fungicide treatment and/or other chemical or physical treatment was applied. The plants were grown for 7-21 days in a greenhouse with an approximately 15 hr photoperiod which was maintained at about 23-29° C. during the day and 22-28° C. during the night. Nutrients and water were added on a regular basis and supplemental lighting was provided with overhead metal halide 1000 Watt lamps as necessary. The plants were employed for testing when they reached the first or second true leaf stage. A weighed amount of each test compound, determined by the highest rate to be tested, was placed in a 20 mL glass vial and was dissolved in 4 mL of a 97:3 v/v (volume/volume) mixture of acetone and dimethyl sulfoxide to obtain concentrated stock solutions. […] The concentrated stock solutions obtained were diluted with an aqueous mixture containing acetone, water, iso-propyl alcohol, dimethyl sulfoxide, Atplus 411F crop oil concentrate, and Triton X-155 surfactant (methylenebisdiamyl phenoxy polyethoxy ethanol) in a 48.5:39:10:1.5:1.0:0.02 v/v ratio to obtain spray solutions of known concentration. The solutions containing the highest concentration to be tested were prepared by diluting 2 mL aliquots of the stock solution with 13 mL of the mixture and lower concentrations were prepared by dilution of appropriate smaller portions of the stock solution. Approximately 1.5 mL aliquots of each solution of known concentration were sprayed evenly onto each of the test plant pots using a DeVilbiss atomizer driven by compressed air pressure of 2 to 4 psi (140 to 280 kilopascals) to obtain thorough coverage of each plant. Control plants were sprayed in the same manner with the aqueous mixture. In this test an application rate of 1 ppm results in the application of approximately 1 g/ha. The treated plants and control plants were placed in a greenhouse as described above and watered by sub-irrigation to prevent wash-off of the test compounds. After 2 weeks the condition of the test plants as compared with that of the untreated plants was determined visually and scored on a scale of 0 to 100 percent where 0 corresponds to no injury and 100 corresponds to complete kill.

The subject of assay [2] is cocklebur (Xanthium strumarium). The experiment in a line: Postemergence herbicidal activity, cocklebur. As to conditions: foliar spray, visual after 2 weeks, 0 no injury, 100 complete kill. As to the method: as §1
Assay [3] relates to lambsquarters (Chenopodium album). The experiment in a line: Postemergence herbicidal activity, lambsquarters. Conditions: foliar spray, visual after 2 weeks, 0 no injury, 100 complete kill. As to the method:
as §1

Assay [4] has as its system morningglory (Ipomoea hederacea). Description: Postemergence herbicidal activity, morningglory. As to conditions: foliar spray, visual after 2 weeks, 0 no injury, 100 complete kill. As to the method: as §1
In assay [5] the test system is pigweed (Amaranthus retroflexus). Description: Postemergence herbicidal activity, pigweed. Conditions: foliar spray, visual after 2 weeks, 0 no injury, 100 complete kill. As to the method:
as §1

Assay [6] relates to velvetleaf (Abutilion theophrasti). The experiment in a line: Postemergence herbicidal activity, velvetleaf. Conditions: foliar spray, visual after 2 weeks, 0 no injury, 100 complete kill. As to the method: as §1
The subject of a further assay is viola (Viola tricolor). The experiment in a line: Postemergence herbicidal activity, viola. Conditions: foliar spray, visual after 2 weeks, 0 no injury, 100 complete kill. As to the method:
as §1

Assay [7] concerns wild buckwheat (Polygonum convolvulus). Description: Postemergence herbicidal activity, wild buckwheat. Conditions: foliar spray, visual after 2 weeks, 0 no injury, 100 complete kill. As to the method:
as §1

In assay [8] the test system is blackgrass (Alopecurus myosuroides). The experiment in a line: Postemergence herbicidal activity, blackgrass. Conditions: foliar spray, visual after 2 weeks, 0 no injury, 100 complete kill. As to the method: as §1
The subject of assay [9] is giant foxtail (Setaria faberi). The experiment in a line: Postemergence herbicidal activity, giant foxtail. Conditions: foliar spray, visual after 2 weeks, 0 no injury, 100 complete kill. As to the method:
as §1

Assay [10] deals with Rox orange sorghum (Sorghum bicolor). Description: Postemergence herbicidal activity, Rox orange sorghum. Conditions: foliar spray, visual after 2 weeks, 0 no injury, 100 complete kill. As to the method: as §1
For assay [11], the system named is wild oats (Avena fatua). Description: Postemergence herbicidal activity, wild oats. Conditions: foliar spray, visual after 2 weeks, 0 no injury, 100 complete kill. As to the method:
as §1

For assay [12], the system named is cocklebur (Xanthium strumarium). The experiment in a line: Preemergence herbicidal activity, cocklebur. Conditions: soil spray, visual after 3 weeks, 0 no injury, 100 complete kill or no germination. As to the method: (§2) The soil matrix was contained in plastic pots with a surface area of 161 square centimeters. When required to ensure good germination and healthy plants, a fungicide treatment and/or other chemical or physical treatment was applied. A weighed amount, determined by the highest rate to be tested, of each test compound was placed in a 20 mL glass vial and was dissolved in 8 mL of a 97:3 v/v (volume/volume) mixture of acetone and dimethyl sulfoxide to obtain concentrated stock solutions. […] The stock solutions obtained were diluted with a 99.9:0.1 mixture of water and Tween® 155 surfactant (ethoxylated sorbitan fatty acid ester) to obtain application solutions of known concentration. The solutions containing the highest concentration to be tested were prepared by diluting 4 mL aliquots of the stock solution with 8.5 mL of the mixture and lower concentrations were prepared by dilution of appropriate smaller portions of the stock solution. A 2.5 mL aliquot of each solution of known concentration was sprayed evenly onto the soil of each seeded pot using a Cornwall 5.0 mL glass syringe fitted with a TeeJet TN-3 hollow cone nozzle to obtain thorough coverage of the soil in each pot. Control pots were sprayed in the same manner with the aqueous mixture. A highest application rate of 4.48 kg/ha is achieved when 50 mg of test compound is employed. The treated pots and control pots were placed in a greenhouse with an approximately 15 hr photoperiod which was maintained at about 23-29° C. during the day and 22-28° C. during the night. Nutrients and water were added on a regular basis and supplemental lighting was provided with overhead metal halide 1000 Watt lamps as necessary. The water was added by top-irrigation. After 3 weeks the condition of the test plants that germinated and grew as compared with that of the untreated plants that germinated and grew was determined visually and scored on a scale of 0 to 100 percent where 0 corresponds to no injury and 100 corresponds to complete kill or no germination.

The test system of assay [13] is lambsquarters (Chenopodium album). Description: Preemergence herbicidal activity, lambsquarters. Conditions: soil spray, visual after 3 weeks, 0 no injury, 100 complete kill or no germination. As to the method:
as §2

Assay [14] has as its system morningglory (Ipomoea hederacea). The experiment in a line: Preemergence herbicidal activity, morningglory. As to conditions: soil spray, visual after 3 weeks, 0 no injury, 100 complete kill or no germination. As to the method:
as §2

Assay [15] has as its system pigweed (Amaranthus retroflexus). Description: Preemergence herbicidal activity, pigweed. As to conditions: soil spray, visual after 3 weeks, 0 no injury, 100 complete kill or no germination. As to the method: as §2
Assay [16] concerns velvetleaf (Abutilion theophrasti). Description: Preemergence herbicidal activity, velvetleaf. Conditions: soil spray, visual after 3 weeks, 0 no injury, 100 complete kill or no germination. As to the method: as §2
Assay [17] concerns wild poinsettia (Euphorbia heterophylla). The experiment in a line: Preemergence herbicidal activity, wild poinsettia. As to conditions: soil spray, visual after 3 weeks, 0 no injury, 100 complete kill or no germination. As to the method: as §2
In assay [18] the test system is blackgrass (Alopecurus myosuroides). Description: Preemergence herbicidal activity, blackgrass. As to conditions: soil spray, visual after 3 weeks, 0 no injury, 100 complete kill or no germination. As to the method:
as §2

The subject of assay [19] is barnyardgrass (Echinochloa crus-galli). The experiment in a line: Preemergence herbicidal activity, barnyardgrass. Conditions: soil spray, visual after 3 weeks, 0 no injury, 100 complete kill or no germination. As to the method: as §2
Assay [20] relates to crabgrass (Digitaria sanguinalis). Description: Preemergence herbicidal activity, crabgrass. Conditions: soil spray, visual after 3 weeks, 0 no injury, 100 complete kill or no germination. As to the method:
as §2

Assay [21] deals with giant foxtail (Setaria faberi). The experiment in a line: Preemergence herbicidal activity, giant foxtail. Conditions: soil spray, visual after 3 weeks, 0 no injury, 100 complete kill or no germination. As to the method: as §2
The test system of assay [22] is Rox orange sorghum (Sorghum bicolor). The experiment in a line: Preemergence herbicidal activity, Rox orange sorghum. Conditions: soil spray, visual after 3 weeks, 0 no injury, 100 complete kill or no germination. As to the method: as §2
The subject of assay [23] is wild oats (Avena fatua). Description: Preemergence herbicidal activity, wild oats. Conditions: soil spray, visual after 3 weeks, 0 no injury, 100 complete kill or no germination. As to the method: as §2

In the case of `COc1cnc(OC)n2nc(NS(=O)(=O)c3ccsc3CC(=O)O)nc12` [Compound 6, N-(5,8-dimethoxy[1,2,4]triazolo[1,5-c]pyrimidin-2-yl)-2-carboxymethylthiophene-3-sulfonamide], the “STEME postemergence injury score 0-100” value in assay [1] (7.8 ppm) came to 80%. Also, the “XANST postemergence injury score 0-100” value in [2] (7.8 ppm) stood at 95%. The “CHEAL postemergence injury score 0-100” value in [3] (7.8 ppm) worked out at 80%. In addition, the “IPOHE postemergence injury score 0-100” value in [4] (7.8 ppm) came to 85%. In addition, the “AMARE postemergence injury score 0-100” value in [5] (7.8 ppm) came out at 100%. The “ABUTH postemergence injury score 0-100” value in assay [6] (7.8 ppm) is recorded as 90%. Besides, the “VIOTR postemergence injury score 0-100” value in the assay on viola (Viola tricolor) (7.8 ppm) turned out to be 85%. Further, in assay [7] (7.8 ppm), the “POLCO postemergence injury score 0-100” value was determined as 85%. Moreover, the “ALOMY postemergence injury score 0-100” value in assay [8] (7.8 ppm) stood at 80%. Besides, in [9] (7.8 ppm), the “SETFA postemergence injury score 0-100” value came to 98%. Besides, in [10] (7.8 ppm), the “SORBI postemergence injury score 0-100” value was 80%. Besides, the “AVEFA postemergence injury score 0-100” value in the assay with wild oats (Avena fatua) [11] (7.8 ppm) came to 70%. Also, the “XANST preemergence injury score 0-100” value in assay [12] (35 g/Ha) worked out at 70%. Moreover, the “CHEAL preemergence injury score 0-100” value in [13] (35 g/Ha) is on record as 99%. Moreover, the “IPOHE preemergence injury score 0-100” value in [14] (35 g/Ha) came to 80%. The “AMARE preemergence injury score 0-100” value in [15] (35 g/Ha) was 100%. In addition, in assay [16] (35 g/Ha), the “ABUTH preemergence injury score 0-100” value is recorded as 80%. In addition, in [17] (35 g/Ha), the “EPHHL preemergence injury score 0-100” value was determined as 70%. The “ALOMY preemergence injury score 0-100” value in assay [18] (35 g/Ha) is on record as 75%. Further, the “ECHCG preemergence injury score 0-100” value in assay [19] (35 g/Ha) is recorded as 80%. In assay [20] (35 g/Ha), the “DIGSA preemergence injury score 0-100” value worked out at 100%. In addition, the “SETFA preemergence injury score 0-100” value in assay [21] (35 g/Ha) was 100%. In addition, in [22] (35 g/Ha), the “SORBI preemergence injury score 0-100” value is recorded as 100%. In the assay with wild oats (Avena fatua) [23] (35 g/Ha), the “AVEFA preemergence injury score 0-100” value amounted to 80%.
With `CCOc1cscc1S(=O)(=O)Nc1nc2c(OC)ccc(OC)n2n1` [Compound 11], in assay [1] (15.6 ppm), the “STEME postemergence injury score 0-100” value was found to be 80%. The “XANST postemergence injury score 0-100” value in [2] (15.6 ppm) is given as 90%. For the same compound, in assay [3] (15.6 ppm), the “CHEAL postemergence injury score 0-100” value is 95%. Moreover, the “IPOHE postemergence injury score 0-100” value in assay [4] (15.6 ppm) stood at 70%. The “AMARE postemergence injury score 0-100” value in assay [5] (15.6 ppm) amounted to 100%. Besides, the “ABUTH postemergence injury score 0-100” value in assay [6] (15.6 ppm) worked out at 85%. Further, the “VIOTR postemergence injury score 0-100” value in the assay with viola (Viola tricolor) (15.6 ppm) came out at 75%. In assay [7] (15.6 ppm), the “POLCO postemergence injury score 0-100” value amounted to 80%. Further, the “ALOMY postemergence injury score 0-100” value in assay [8] (15.6 ppm) is listed as 75%. Besides, the “SETFA postemergence injury score 0-100” value in assay [9] (15.6 ppm) is on record as 100%. Further, in [10] (15.6 ppm), the “SORBI postemergence injury score 0-100” value amounted to 90%. In addition, the “AVEFA postemergence injury score 0-100” value with wild oats (Avena fatua) [11] (15.6 ppm) is 85%. Also, the “XANST preemergence injury score 0-100” value in assay [12] (4.4 g/Ha) stood at 50%. Besides, the “CHEAL preemergence injury score 0-100” value in assay [13] (4.4 g/Ha) turned out to be 95%. Further, in assay [14] (4.4 g/Ha), the “IPOHE preemergence injury score 0-100” value turned out to be 30%. Moreover, the “AMARE preemergence injury score 0-100” value in assay [15] (4.4 g/Ha) is 90%. For the same compound, the “ABUTH preemergence injury score 0-100” value in [16] (4.4 g/Ha) amounted to 80%. Besides, the “EPHHL preemergence injury score 0-100” value in assay [17] (4.4 g/Ha) is 50%. Besides, the “ALOMY preemergence injury score 0-100” value in [18] (4.4 g/Ha) was 100%. Further, the “ECHCG preemergence injury score 0-100” value in assay [19] (4.4 g/Ha) is 10%. For the same compound, in assay [20] (4.4 g/Ha), the “DIGSA preemergence injury score 0-100” value is 40%. In addition, the “SETFA preemergence injury score 0-100” value in assay [21] (4.4 g/Ha) is recorded as 100%. For the same compound, the “SORBI preemergence injury score 0-100” value in [22] (4.4 g/Ha) is 98%. Besides, the “AVEFA preemergence injury score 0-100” value in the assay on wild oats (Avena fatua) [23] (4.4 g/Ha) was found to be 70%.
